Measurements from US10745370B2, “Farnesyl transferase inhibitors and uses thereof” (MACKAY MEMORIAL HOSPITAL, priority 2016, dated 2020).
“And” between values parts separate entries of the source, which are not always exact repeats. Identical values can stand only once. “Also recorded” adds a separate entry of the source.

Assays:
rat PFTase = molecular target: T1, rat PFTase (Rattus norvegicus, UniProt Q02293+Q04631); assay: Inhibition of farnesyl transferase (fluorescence assay); format: biochemical; conditions: mean ± SD of three independent experiments
T1 construct: purchased Jena Biosciences
Procedure: The assay was carried out in 384-well microplates with a final volume of 20 μl by the method modified from the previous report (Long et al., 2009). Briefly, 10 nM of rat PFTase (Jena Biosciences, Jena, Germany) was incubated with the tested compound or DMSO (1%) for 15 min, and then the mixture was added in a solution (50 mM Tris-HCl, pH 7.5, 5 mM MgCl2, 5 mM DTT, 0.1 mM ZnCl2, 0.2% octyl-β-D-glucopyranoside (Sigma, St. Louis, Mo.), 10 μM PFTase substrate dansyl-Gly-Cys-Val-Leu-Ser-OH, and 10 μM farnesyl pyrophosphate (Sigma, St. Louis, Mo.)) to initiate the reaction. The reaction was incubated at 37° C. for 30 min, and the fluorescence was detected by a M5 plate reader (Molecular Devices, CA, USA) at 340 nm excitation and 505 nm emission.

macrophages [1] = assay: Morphology of macrophages (photographs, Liu's staining); format: cell-based, human; conditions: for morphology of cells by Liu's staining compared with control cells: FIG. 1 panel C
Procedure: (§1) Mononuclear cells (MNCs) were separated from the peripheral blood of healthy donors obtained with written consent by use of Ficoll-Hypaque density centrifugation, followed by positive selection with magnetic anti-CD14 microbeads.
(§2) The isolated CD14^+ cells were cultivated in Minimum Essential Medium (MEM medium) supplemented with 10% fetal bovine serum (FBS), 100 ng/ml granulocyte-macrophage colony-stimulating factor (GM-CSF, Gentaur), and 50 ng/ml interleukin-4 (IL-4, R&D), and kept in an environment of 37° C. with 5% CO2/95% air.
(§3) To evaluate the effects of the present compound on dendritic cells, the CD14^+ cells were respectively treated with 10 μM of test compound (i.e., Mib-5, Mib-6, Mib-7, Mib-8, Mib-9, and Mib-10) on day 1. Then, on day 3, the cultured medium in each well was replenished by adding half the volume of the cultured medium containing the same treatment as indicated above. Then, on day 6, a cytokine cocktail containing IL-1, IL-6, and tumor necrosis factor-α (TNF-α) was added to induce maturation. On day 7, the differentiated dendritic cells were collected and subjected to further assays, including viability assay, morphology observation, and cell marker staining.
(§4) As to the effects of the present compound on macrophages, the CD14^+ cells were cultivated and treated as indicated above except the addition of cytokine cocktail on day 6. The macrophages were collected on day 6 and subjected to further assays, including viability assay, trypan blue exclusion test, morphology observation, cell marker staining, and phagocytotic activity analysis.
(§5) Cells were transferred to a glass coverslide and covered with solution A (0.5 g of methylene blue and 1.7 g of Eosin yellow dissolved in 1,000 ml of ethanol). After 45 seconds, solution B (1.3 g of azure, 1.4 g of methylene blue, 23.38 g of Na2HPO4, 6.5 g of KH2PO4, dissolved in 1,000 ml of distilled water) was added in the proportion of 2 parts of B to 1 part of A. Mixed the solutions well by blowing the surface. The slide was left standing for 90 seconds and then washed off the staining solution rapidly by running water. The morphology of stained cells was then examined under microscope.

macrophages [2] = assay: Trypan blue exclusion test on macrophages; format: cell-based; conditions: trypan blue analysis, FIG. 2
Procedure: as §1, §2, §3, §4
(§6) The dye exclusion test is used to determine the number of viable cells present in a cell suspension. […] In this test, the cells were first treated with a test compound (i.e., Mib-5, 6, 7, 8, 9 or 10) for a certain period of time (e.g., 72 hours), then the cells were harvested and re-suspended in suitable buffer solution. The cell suspension was then mixed with trypan blue dye and then visually examined to determine whether cells had taken up or excluded the dye. A viable cell will have a clear cytoplasm, whereas a nonviable cell will have a blue cytoplasm. The concentration required to reduce viability by 50% (IC50) after 72 hours was extrapolated from the dose-response curves by different concentrations of the test compound using a second-order polynomial regression model and analyzing with SigmaPlot Software (Systat Software Inc., San Jose, Calif.).

M1 macrophages [3] = assay: Differentiation analysis, cell viability of M1 macrophages; format: cell-based, human; conditions: for Cell viability of M1 macrophages: LPS-induced M1 differentiation, 6 days, control 100%
Procedure: (§7) M1 differentiation of freshly isolated CD14^+ cells was induced by the addition of lipopolysaccharide (LPS), while M2 differentiation of freshly isolated CD14^+ cells was induced by the addition of IL-4. Then, the present compounds (e.g., Mib-5, 6, 7, 8, 9, or 10) were added at the indicated dosages. 6 days later, the population of the differentiated macrophages were then determined by cell viability analysis. The cell viability was measured by cell counting kit-8 (CCK-8, Sigma). The half maximal inhibitory concentrations (IC50) of the test compounds on macrophages or dendritic cells were calculated.

M2 macrophages [4] = assay: Differentiation analysis, cell viability of M2 macrophages; format: cell-based, human; conditions: for Cell viability of M2 macrophages: IL-4-induced M2 differentiation, 6 days, control 100%; for change in M2 population of macrophages compared with control: Table 4
Procedure: as §7

macrophages [5] = assay: Cell marker expression on macrophages (total), flow cytometry; format: cell-based, human; conditions: for total expressed level of CD14: FIG. 3; for level of CD206: FIG. 5; for total level of CD80: compared with the control
Procedure: as §1, §2, §3, §4
(§8) The expression of various types of cell markers, such as CD14, CD206, and CD80 expressed on the surface of macrophages, and CD1a, CD14, CD83, and HLA-DR expressed on the dendritic cells, were respectively detected by fluorescein isothiocyanate (FITC) and phycoerythrin (PE)-conjugated monoclonal antibodies in FACS caliber flowcytometer. Monoclonal antibodies used in this examples included anti-CD14 (IgG-FITC), anti-CD206 (IgG-FITC), anti-CD80-PE, anti-CD1a-PE, anti-CD83-PE and anti-human leukocyte antigen (HLA)-DR-PE. Results were analyzed by CellQuest software.

M1 macrophages [6] = assay: Cell marker expression on M1 macrophages, flow cytometry; format: cell-based, human; conditions: for CD14: M1 population after treatment: Table 5; for CD80: change in M1 population: Table 6; for CD206: change in M1: Table 7; for CD206 expression on M1 macrophages: control 14.27%; for CD80 expression on M1 macrophages: control 71.34%; for CD14 expression on M1 macrophages: control 99.83%
Procedure: (§9) M1 differentiation of freshly isolated CD14^+ cells was induced by the addition of lipopolysaccharide (LPS), while M2 differentiation of freshly isolated CD14^+ cells was induced by the addition of IL-4. Then, the present compounds (e.g., Mib-5, 6, 7, 8, 9, or 10) were added at the indicated dosages. 6 days later, the population of the differentiated macrophages were then determined by cell viability analysis.
as §8

M2 macrophages [7] = assay: Cell marker expression on M2 macrophages, flow cytometry; format: cell-based, human; conditions: for CD14: M2 population after treatment: Table 5; for CD80 expression on M2 macrophages: control 47.64%; for CD14 expression on M2 macrophages: control 55.66%; for CD206 expression on M2 macrophages: control 74.49%
Procedure: as §9, §8

macrophages [8] = assay: Phagocytosis assay with fluorescent latex beads; format: cell-based, human; conditions: M1 and/or M2 populations, FIG. 6
Procedure: as §4
The phagocytic activity of macrophages was measured by using flow cytometric analysis. The green fluorescent latex beads (carboxylate-modified beads with diameter 2 μm) were suspended in PBS solution and added into macrophage culture for 2 hours with vortexa at 37° C. The macrophages were subjected to flow cytometry for measurement of fluorescent intensity

dendritic cells [9] = assay: Trypan blue exclusion analysis of dendritic cells; format: cell-based, human; conditions: 10 μM, seven days, FIG. 7
Procedure: as §1, §2, §3, §6
(§10) In this example, the effects of the present compounds on dendritic cells were investigated. Briefly, the dendritic cells were respectively treated with 10 μM of Mib-5, Mib-6, Mib-7, Mib-8, or Mib-10. Seven days later, the cells were harvested and subjected to analysis of morphology observation, cell viability, and/or cell marker expression.

dendritic cells [10] = assay: Morphology of dendritic cells by Liu's staining; format: cell-based, human; conditions: 10 μM, seven days, FIG. 8
Procedure: as §1, §2, §3, §5, §10

dendritic cells [11] = assay: Cell marker expression on dendritic cells, flow cytometry; format: cell-based, human; conditions: 10 μM; for expression of CD1a, differentiation marker of dendritic cells: FIG. 9; for expression of CD83, maturation marker of dendritic cells: FIG. 10
Procedure: as §1, §2, §3, §8, §10

| SMILES | IC50 (rat PFTase) | morphology of cells by Liu's staining compared with control cells (macrophages [1]) | cell viability / cytotoxicity toward macrophages (macrophages [2]) | Cell viability of M1 macrophages (M1 macrophages [3]) | Cell viability of M2 macrophages (M2 macrophages [4]) | change in M2 population of macrophages compared with control (M2 macrophages [4]) | total expressed level of CD14 (macrophages [5]) | level of CD206 (macrophages [5]) | total level of CD80 (macrophages [5]) | CD14: M1 population after treatment (M1 macrophages [6]) | CD80: change in M1 population (M1 macrophages [6]) | CD206: change in M1 (M1 macrophages [6]) | CD206 expression on M1 macrophages (M1 macrophages [6]) | CD80 expression on M1 macrophages (M1 macrophages [6]) | CD14 expression on M1 macrophages (M1 macrophages [6]) | CD14: M2 population after treatment (M2 macrophages [7]) | CD80 expression on M2 macrophages (M2 macrophages [7]) | CD14 expression on M2 macrophages (M2 macrophages [7]) | CD206 expression on M2 macrophages (M2 macrophages [7]) | phagocytic activity compared with control (macrophages [8]) | other results |
| --- | --- | --- | --- | --- | --- | --- | --- | --- | --- | --- | --- | --- | --- | --- | --- | --- | --- | --- | --- | --- | --- |
| CSCC[C@H](NC(=O)c1ccc(NC(=O)[C@@H](N)CS)cc1)C(=O)O [FTase Inhibitor II, reference compound] | 0.13 ± 0.03 µM |  |  |  |  |  |  |  |  |  |  |  |  |  |  |  |  |  |  |  |  |
| COC1=CC(=O)[C@@]2(c3cc(=O)c4c(O)cc(OC)cc4o3)[C@H](C[C@]3(C)[C@@H](C(=O)O)CC=C4[C@H]3CCCC4(C)C)C(C)=CC[C@H]2C1=O [Mib-6] | < 10 µM and 4.97 µM | not significantly affected | slight toxicity; also recorded: no significant cytotoxicity | 57.2% | 90.6% | slight decrease | not affected | increase | significantly reduced | remained relatively unchanged | reduction | significant decrease | 4.52% | 6.59% | 86.43% | significant decrease | 41.4% | 91.25% | 77.78% | not | morphology and adhesion of treated macrophages (macrophages [1]; 10 μM, FIG. 1 panel B): became rounded up, and were less adhesive; change in M1 population of macrophages compared with control (M1 macrophages [3]; Table 4): significant reduction; CD206: change in M2 (M2 macrophages [7]; Table 7): increase; levels of viable dendritic cells (dendritic cells [9]): reduced; dendritic cell morphology compared with control group (dendritic cells [10]): cell death reflected in morphology changes, and less dendritic process; expression of CD1a, differentiation marker of dendritic cells (dendritic cells [11]): inhibited; expression of CD83, maturation marker of dendritic cells (dendritic cells [11]): inhibited |
| COC1=CC(=O)[C@@]2(c3cc(=O)c4c(O)cc(O)cc4o3)[C@H](CC=C(C)[C@@H]2C[C@]2(C)[C@@H](C(=O)O)CC=C3[C@H]2CCCC3(C)C)C1=O [Mib-8] | < 10 µM and 5.05 µM | not significantly affected | did not adversely affect cell viability; also recorded: no significant cytotoxicity | 79.4% | 100% | no effect | not affected | increase | increased | remained relatively unchanged | reduction | significant decrease | 11.98% | 60.16% | 99.73% | significant decrease | 56.66% | 62.34% | 51.05% | reduced | cells exhibiting adhesive morphology (macrophages [1]; 10 μM, FIG. 1 panel A): about 20%; reduction in the M1 population (M1 macrophages [3]; compared with control, Table 4): about 20%; increase of total level of CD80 as compared with the control (macrophages [5]): about 2 folds; CD80: change in M2 population (M2 macrophages [7]; Table 6): increase; levels of viable dendritic cells (dendritic cells [9]): remained relatively unchanged; dendritic cell morphology compared with control group (dendritic cells [10]): did not cause any significant changes; expression of CD1a, differentiation marker of dendritic cells (dendritic cells [11]): not; expression of CD83, maturation marker of dendritic cells (dendritic cells [11]): not affected |
| COC1=CC(=O)[C@@]2(c3cc(=O)c4ccc(O)cc4o3)[C@H](C[C@]3(C)[C@@H](C(=O)O)CC=C4[C@H]3CCCC4(C)C)C(C)=CC[C@H]2C1=O [Mib-9] | ~47 µM and 47 µM |  |  |  |  |  |  |  |  |  |  |  |  |  |  |  |  |  |  |  |  |
